Results: US9682925B2, “Cyclopropaneamine compound” (TAKEDA PHARMACEUTICAL COMPANY LIMITED, priority 2011, dated 2017)
Structures can show the parent of a compound that is named as a salt.

Legend:
Assay type in all cases: biochemical
human LSD1(171-852) = target: T1, human LSD1(171-852) (Homo sapiens, UniProt O60341); assay: Measurement of LSD1 inhibitory activity (time-resolved fluorescence, biotin-histone H3 mono methylated K4 peptide); conditions: read-out: LSD1 IC50 value
T1 construct: to give hLSD1(171-852) purified product; made in house; host or cells: Escherichia coli C43(DE3) pLysS
Description: When the turbidity reached 600 Klett units, the culture temperature was changed to 16° C., IPTG having a final concentration of 0.5 mM was added to induce expression, and the cells were cultured further for 21 hr. The culture medium was centrifuged at 9,000 g for 10 min, and Escherichia coli pellets were recovered.
Escherichia coli pellets in 9 L of the culture medium were suspended in 1340 mL of an extraction buffer (PBS, 5% (V/V) Glycerol), and 6700 units of Benzonase (Merck) were added. Using Branson ultrasonic disintegrator, the suspension was disrupted by ultrasonication for 3 min, and centrifuged at 33,000 g for 20 min, and the supernatant was recovered.
(5) Measurement of LSD1 Inhibitory Activity
After reaction at room temperature for 20 min, 1 mM 2-PCPA solution (5 μL) was added to terminate the reaction. A detection solution (800 mM potassium fluoride, 0.1% BSA) containing europium-labeled antihistone H3 antibody (Wako Pure Chemical Industries, Ltd.) and Streptavidin-XL665 (Cisbio) was further added by 5 μL, and the mixture was left standing for 60 min. A time-resolved fluorescence (excitation 320 nm, emission 615 nm, 665 nm) was measured by Envision (PerkinElmer). The LSD1 inhibitory rate (%) of the test compound was calculated by the following formula. inhibitory rate (%)=(1−(test compound count−blank)÷(control−blank)×100
The count of the LSD1 enzyme reaction mixture under compound non-addition conditions is indicated as control, and the count under compound non-addition and LSD1 enzyme non-addition conditions is indicated as blank.

MAO-A = target: T2, MAO-A (Homo sapiens, UniProt P21397); assay: Measurement of MAO-A inhibitory activity (MAO-Glo Assay)
T2 construct: purchased Sigma-Aldrich Co. LLC
T2 sequence (P21397 1-527): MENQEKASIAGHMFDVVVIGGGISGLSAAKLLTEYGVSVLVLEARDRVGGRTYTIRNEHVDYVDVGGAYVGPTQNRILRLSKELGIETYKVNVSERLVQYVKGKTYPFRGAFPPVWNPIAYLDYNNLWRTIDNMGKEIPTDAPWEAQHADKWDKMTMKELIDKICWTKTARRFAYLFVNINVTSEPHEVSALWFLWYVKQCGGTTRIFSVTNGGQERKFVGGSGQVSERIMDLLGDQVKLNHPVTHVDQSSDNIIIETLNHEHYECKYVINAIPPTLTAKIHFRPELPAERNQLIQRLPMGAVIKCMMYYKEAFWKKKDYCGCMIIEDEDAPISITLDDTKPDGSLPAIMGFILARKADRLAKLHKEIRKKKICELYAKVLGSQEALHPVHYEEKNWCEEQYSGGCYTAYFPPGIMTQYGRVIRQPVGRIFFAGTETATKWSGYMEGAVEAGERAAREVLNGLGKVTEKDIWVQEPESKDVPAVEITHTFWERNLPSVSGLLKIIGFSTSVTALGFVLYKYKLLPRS
Description: (1) Measurement of MAO-A Inhibitory Activity
The MAO-A inhibitory activity evaluation described below followed the protocol of MAO-Glo (registered trademark) Assay of Promega KK.
(§1) A test compound dissolved in 4% DMSO was added by 12.5 μL to 25 μL reaction solution (100 mM HEPES (pH 7.5), 5% glycerol) containing 400 ng of MAO-A enzyme (Sigma-Aldrich Co. LLC.), and the mixture was reacted at room temperature for 10 min. MAO substrate (Promega KK) (160 μM) was added by 12.5 μL to start the reaction. After reaction at room temperature for 60 min, Luciferine detection reagent (Promega KK) (50 μL) was added to terminate the reaction. After reaction at room temperature for 20 min with stirring, the luminescence was measured by Envision (PerkinElmer). The MAO-A inhibitory rate (%) of the test compound was calculated by the following formula. inhibitory rate (%)=(1−(test compound count−blank)÷(control−blank)×100
The count of the MAO-A enzyme reaction mixture under compound non-addition conditions is indicated as control, and the count under compound non-addition and MAO-A enzyme non-addition conditions is indicated as blank.

MAO-B = target: T3, MAO-B (Homo sapiens, UniProt P27338); assay: Measurement of MAO-B inhibitory activity (MAO-Glo Assay)
T3 construct: purchased Sigma-Aldrich Co. LLC
T3 sequence (P27338 1-520): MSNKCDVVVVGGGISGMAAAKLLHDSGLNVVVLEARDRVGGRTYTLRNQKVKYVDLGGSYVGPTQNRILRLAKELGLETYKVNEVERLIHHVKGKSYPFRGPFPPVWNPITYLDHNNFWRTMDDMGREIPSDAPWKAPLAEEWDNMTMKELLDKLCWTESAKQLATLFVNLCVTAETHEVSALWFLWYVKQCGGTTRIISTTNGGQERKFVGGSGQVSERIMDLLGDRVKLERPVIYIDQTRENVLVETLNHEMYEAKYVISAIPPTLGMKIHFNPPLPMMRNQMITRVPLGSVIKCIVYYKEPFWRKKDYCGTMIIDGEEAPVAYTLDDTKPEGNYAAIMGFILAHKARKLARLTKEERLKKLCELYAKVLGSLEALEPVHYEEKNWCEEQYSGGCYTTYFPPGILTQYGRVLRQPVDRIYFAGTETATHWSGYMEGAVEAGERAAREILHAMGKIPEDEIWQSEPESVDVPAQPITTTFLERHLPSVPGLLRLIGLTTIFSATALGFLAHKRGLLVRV
Description: (2) Measurement of MAO-B Inhibitory Activity
The MAO-B inhibitory activity evaluation described below followed the protocol of MAO-Glo (registered trademark) Assay of Promega KK.
as §1, with “glycerol, 10% DMSO)” for “glycerol)”, “MAO-B” for “MAO-A”, “(16” for “(160”
The count of the MAO-B enzyme reaction mixture under compound non-addition conditions is indicated as control, and the count under compound non-addition and MAO-B enzyme non-addition conditions is indicated as blank.

Row | SMILES | IC50 (human LSD1(171-852)) | IC50 (MAO-A) | IC50 (MAO-B)
1 | O=C(Nc1ccc([C@@H]2C[C@H]2NC2CCN(Cc3ccccc3)CC2)cc1)c1ccccc1 (relative stereo) [Example 25, N-(4-{trans-2-[(1-benzyl-piperidin-4-yl)amino]cyclo-propyl}phenyl)-benzamide] | < 0.1 µM | > 10 µM | > 10 µM
2 | O=C(Nc1cccc(C(=O)Nc2ccc([C@@H]3C[C@H]3NCc3ccccc3)cc2)c1)c1ccccc1 (relative stereo) [Example 31, N-{4-[trans-2-(benzylamino)cyclopropyl]phenyl}-3-[(phenylcarbonyl)amino]benzamide] | < 0.1 µM | > 10 µM | > 10 µM
3 | O=C(Nc1ccc([C@@H]2C[C@H]2NCCOCc2ccccc2)cc1)c1ccc(-c2ccccc2)cc1 (relative stereo) [Example 52, N-{4-[trans-2-{[2-(benzyloxy)ethyl]-amino}cyclopropyl]-phenyl}biphenyl-4-carboxamide] | 0.16 µM | > 10 µM | > 10 µM
4 | C=CCOC(=O)N1CCC(N[C@@H]2C[C@H]2c2ccc(NC(=O)c3ccc(-c4ccccc4)cc3)cc2)CC1 (relative stereo) [Example 55, allyl 4-{[trans-2-{4-[(biphenyl-4-yl-carbonyl)amino]-phenyl}cyclo-propyl]amino}-piperidine-1-carboxylate] | 0.13 µM | > 10 µM | > 10 µM
5 | O=C(Nc1ccc([C@@H]2C[C@H]2NCc2ccccc2F)cc1)c1ccccc1 (relative stereo) [Example 15, N-(4-{trans-2-[(2-fluoro-benzyl)amino]-cyclopropyl}-phenyl)benzamide] | < 0.1 µM | 6 µM | > 10 µM
6 | O=C(Nc1ccc([C@@H]2C[C@H]2NCc2ccc(Cl)c(Cl)c2)cc1)c1ccc(-c2ccccc2)cc1 (relative stereo) [Example 53, N-(4-{trans-2-[(3,4-dichloro-benzyl)amino]-cyclopropyl}phenyl)-biphenyl-4-carboxamide] | 0.23 µM | 4 µM | 3.4 µM
7 | O=C(Nc1ccc(C(=O)Nc2ccc([C@@H]3C[C@H]3NCC3CC3)cc2)cc1)c1ccccc1 (relative stereo) [Example 80, N-(4-{trans-2-[(cyclopropylmethyl)amino]cyclopropyl}phenyl)-4-[(phenylcarbonyl)amino]benzamide hydrochloride] | < 0.1 µM | > 10 µM | > 10 µM
8 | CC(COc1ccccc1)N[C@@H]1C[C@H]1c1ccc(NC(=O)c2ccc(-c3ccccc3)cc2)cc1 (relative stereo) [Example 56, N-(4-{trans-2-[(1-methyl-2-phenoxyethyl)-amino]cyclo-propyl}phenyl)-biphenyl-4-carboxamide] | 0.26 µM | > 10 µM | > 10 µM
9 | O=C(Nc1ccc([C@@H]2C[C@H]2NCC2CC2)cc1)c1ccc2c(c1)CCCC2 (relative stereo) [Example 85, N-(4-{trans-2-[(cyclopropylmethyl)amino]cyclopropyl}-phenyl)-5,6,7,8-tetrahydronaphtha-lene-2-carboxamide] | < 0.1 µM | 9.1 µM | 4.9 µM
10 | CCC(CC)N[C@@H]1C[C@H]1c1ccc(NC(=O)c2ccc(-c3ccccc3)cc2)cc1 (relative stereo) [Example 49, N-(4-{trans-2-[(1-ethylpropyl)amino]-cyclopropyl}phenyl)-biphenyl-4-carboxamide] | < 0.1 µM | > 10 µM | > 10 µM

Continued, values first:

Row | IC50 (human LSD1(171-852)) | IC50 (MAO-A) | IC50 (MAO-B) | SMILES
11 | < 0.1 µM | > 10 µM | > 10 µM | CC(=O)N1CCCc2ccc(C(=O)Nc3ccc([C@@H]4C[C@H]4NCC4CC4)cc3)cc2C1 (relative stereo) [Example 134, 2-acetyl-N-(4-{trans-2-[(cyclopropyl-methyl)amino]-cyclopropyl}-phenyl)-2,3,4,5-tetrahydro-1H-2-benzazepine-8-carboxamide]
12 | < 0.1 µM | 7.9 µM | > 10 µM | O=C(Nc1ccc([C@@H]2C[C@H]2NCC2CC2)cc1)c1ccc(-n2ccnc2)cc1 (relative stereo) [Example 92, N-(4-{trans-2-[(cyclopropylmethyl)-amino]cyclopropyl}-phenyl)-4-(1H-imidazol-1-yl)benzamide]
13 | 0.1 µM | > 10 µM | > 10 µM | Cc1cc(C(=O)Nc2ccc([C@@H]3C[C@H]3NCC3CC3)cc2)nn1C (relative stereo) [Example 157, N-(4-{trans-2-[(cyclopropylmethyl)amino]cyclopropyl}phenyl)-1,5-dimethyl-1H-pyrazole-3-carboxamide dihydrochloride]
14 | < 0.1 µM | > 10 µM | > 10 µM | CN1CCC(N[C@@H]2C[C@H]2c2ccc(NC(=O)c3cccc(C(F)(F)F)c3)cc2)CC1 (single isomer, unassigned) [Example 153, N-(4-{(1S,2R) or (1R,2S)-2-[(1-methylpiperidin-4-yl)amino]cyclopropyl}phenyl)-3-(trifluoromethyl)benzamide dihydrochloride]
15 | < 0.1 µM | 4.3 µM | > 10 µM | O=C(Nc1ccc([C@@H]2C[C@H]2NCc2ccc3nccn3c2)cc1)c1cccc(C(F)(F)F)c1 (relative stereo) [Example 107, N-(4-{trans-2-[(imidazo[1,2-a]pyridin-6-ylmethyl)amino]cyclopropyl}phenyl)-3-(trifluoromethyl)benzamide dihydrochloride]
16 | 1.6 µM | > 10 µM | > 10 µM | CC(C)(C)c1ccc(-c2ccc(C(=O)Nc3ccc([C@@H]4C[C@H]4NCC4CC4)cc3)cc2)cc1 (relative stereo) [Example 120, 4′-tert-butyl-N-(4-{trans-2-[(cyclopropylmethyl)amino]cyclopropyl}-phenyl)biphenyl-4-carboxamide]
